Among the data in patent US10112958B2, “N-[2-(2-amino-6,6-disubstituted-4,4a,5,6-tetrahydropyrano[3,4-d][1,3]thiazin-8a(8H)-YL)-1,3-thiazol-4-YL] amides” (Pfizer Inc., priority 2015, dated 2018) are IC50 values, retold here.

SMILES strings stand for the structures.

In the assay the target is T1, BACE1 enzyme (Homo sapiens, UniProt P56817).
T1 construct: transfected with a soluble BACE construct (BACE1deltaTM96His); His (C); made in house; host or cells: CHO-K1 cells (secreted into conditioned media)
T1 sequence (P56817 46-457 limits assumed): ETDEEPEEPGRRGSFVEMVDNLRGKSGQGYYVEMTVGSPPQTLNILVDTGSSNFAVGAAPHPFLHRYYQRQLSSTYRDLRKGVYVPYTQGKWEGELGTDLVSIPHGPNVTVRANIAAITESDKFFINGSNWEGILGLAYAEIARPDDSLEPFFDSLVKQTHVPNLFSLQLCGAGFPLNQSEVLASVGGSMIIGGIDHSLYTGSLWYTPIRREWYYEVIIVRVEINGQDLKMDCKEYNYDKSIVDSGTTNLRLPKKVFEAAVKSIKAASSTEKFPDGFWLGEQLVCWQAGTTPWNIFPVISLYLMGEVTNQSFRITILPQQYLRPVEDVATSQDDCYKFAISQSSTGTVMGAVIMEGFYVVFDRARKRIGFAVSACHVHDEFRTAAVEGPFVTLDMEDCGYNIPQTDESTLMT
The assay is described as follows: BACE1 Cell-Free Assay (fluorescence polarization, cleavage of synthetic APP substrate). The class given is biochemical. The conditions noted are these: geometric mean of 2-4 determinations unless otherwise indicated (b: ≥5 determinations; c: single determination); 0.1 nM BACE1, 150 nM peptide substrate, pH 4.5, 3 hours at 37° C. The source says:
BACE1 Cell-Free Assay: Beta-secretase (BACE) is one of the enzymes involved in the generation of the amyloid beta peptide found in the amyloid plaques of Alzheimer's disease patients. This assay measures the inhibition of the beta-secretase enzyme as it cleaves a non-native peptide.
A synthetic APP substrate that can be cleaved by beta-secretase having N-terminal biotin and made fluorescent by the covalent attachment of Oregon Green at the Cys residue is used to assay beta-secretase activity in the presence or absence of the inhibitory compounds. The substrate is Biotin-GLTNIKTEEISEISY^EVEFR-C[Oregon Green]KK-OH. The BACE1 enzyme is affinity purified material from conditioned media of CHO-K1 cells that have been transfected with a soluble BACE construct (BACE1deltaTM96His). Compounds are incubated in a ½ log dose response curve from a top concentration of 100 μM with BACE1 enzyme and the biotinylated fluorescent peptide in 384-well black plates (Thermo Scientific #4318). BACE1 is at a final concentration of 0.1 nM with a final concentration of peptide substrate of 150 nM in a reaction volume of 30 μL assay buffer [100 mM sodium acetate, pH 4.5 (brought to pH with acetic acid), and 0.001% Tween-20]. Plates are covered and incubated for 3 hours at 37° C. The reaction is stopped with the addition of 30 μL of 1.5 μM Streptavidin (Pierce, #21125). After a 10 minute incubation at room temperature, plates are read on a PerkinElmer EnVision for fluorescence polarization (Ex485 nm/Em530 nm). The activity of the beta-secretase enzyme is detected by changes in the fluorescence polarization that occur when the substrate is cleaved by the enzyme.
`CC(F)(F)COc1cnc(C(=O)Nc2csc([C@@]34COC(C)(C)C[C@@H]3CSC(N)=N4)n2)cn1` (single isomer, unassigned) [Example 18] gave an IC50 of 61700 nM.

`CC1(C)C[C@H]2CSC(N)=N[C@@]2(c2nc(NC(=O)c3coc(CF)n3)cs2)CO1` (single isomer, unassigned) [Example 23] yielded an IC50 of 17 nM.

`NC1=N[C@@]2(c3nc(NC(=O)c4ccc(OC(F)F)cn4)cs3)COC3(CCC3)C[C@H]2CS1` (racemic) [Example 3, N-{2-[cis-2′-amino-4a′,5′-dihydro-4′H-spiro[cyclobutane-1,6′-pyrano[3,4-d][1,3]thiazin]-8a′(8′H)-yl]-1,3-thiazol-4-yl}-5-(difluoromethoxy)pyridine-2-carboxamide] displayed an IC50 of 252 nM.

With `CC1(C)C[C@H]2CSC(N)=N[C@@]2(c2nc(NC(=O)c3ccn(C(F)F)n3)cs2)CO1` (single isomer, unassigned) [Example 12], 22 nM corresponded to half-maximal inhibition (IC50).

`CC[C@@]1(C)C[C@@H]2CSC(N)=N[C@]2(c2nc(NC(=O)c3ccc(OC(F)F)cn3)cs2)CO1` [Example 26, N-{2-[(4aS,6S,8aS)-2-amino-6-ethyl-6-methyl-4,4a,5,6-tetrahydropyrano[3,4-d][1,3]thiazin-8a(8H)-yl]-1,3-thiazol-4-yl}-5-(difluoromethoxy)pyridine-2-carboxamide] displayed an IC50 of 406 nM.

Compound `CC1(C)C[C@@H]2CSC(N)=N[C@]2(c2nc(NC(=O)c3ccn(C(F)F)n3)cs2)CO1` (single isomer, unassigned) [Example 11] gave an IC50 of 6960 nM.

The compound `NC1=N[C@]2(c3nc(NC(=O)c4ccc(OC(F)F)cn4)cs3)COC3(CCC3)C[C@@H]2CS1` (single isomer, unassigned) [Example 4, N-{2-[(4a′S,8a′S)-2′-amino-4a′,5′-dihydro-4′H-spiro[cyclobutane-1,6′-pyrano[3,4-d] [1,3]thiazin]-8a′(8′H)-yl]-1,3-thiazol-4-yl}-5-(difluoromethoxy)pyridine-2-carboxamide] had an IC50 of more than 21100 nM.

In the case of `CC#CCOc1ccc(C(=O)Nc2csc([C@@]34COC(C)(C)C[C@@H]3CSC(N)=N4)n2)nc1` (single isomer, unassigned) [Example 1], the half-inhibitory concentration (IC50) amounted to 31000 nM.

Compound `C[C@]1(CF)C[C@H]2CSC(N)=N[C@@]2(c2nc(NC(=O)c3ccc(OC(F)F)cn3)cs2)CO1` [Example 35, N-{2-[(4aR,6R,8aR)-2-amino-6-(fluoromethyl)-6-methyl-4,4a,5,6-tetrahydropyrano[3,4-d][1,3]thiazin-8a(8H)-yl]-1,3-thiazol-4-yl}-5-(difluoromethoxy) pyridine-2-carboxamide] registered an IC50 of 176 nM.

On to `CC1(C)C[C@H]2CSC(N)=N[C@@]2(c2nc(NC(=O)c3ncc(OC(F)F)cc3Cl)cs2)CO1` [Example 30, N-{2-[(4aR,8aR)-2-amino-6,6-dimethyl-4,4a,5,6-tetrahydropyrano[3,4-d][1,3]thiazin-8a(8H)-yl]-1,3-thiazol-4-yl}-3-chloro-5-(difluoromethoxy)pyridine-2-carboxamide], for which the IC50 was found to be 59 nM.

Take `CC1(C)C[C@@H]2CSC(N)=N[C@]2(c2nc(NC(=O)c3cnc(OC(F)F)cn3)cs2)CO1` (single isomer, unassigned) [Example 13]: the IC50 was 7950 nM.

`NC1=N[C@@]2(c3nc(NC(=O)c4ccc(OC(F)F)cn4)cs3)COC3(CC3)C[C@H]2CS1` (single isomer, unassigned) [Example 39, N-{2-[(4a′R,8a′R)-2′-amino-4a′,5′-dihydro-4′H-spiro[cyclopropane-1,6′-pyrano[3,4-d] [1,3]thiazin]-8a′(8′H)-yl]-1,3-thiazol-4-yl}-5-(difluoromethoxy)pyridine-2-carboxamide] showed an IC50 of 314 nM.

In the case of `CC1(C)C[C@@H]2CSC(N)=N[C@]2(c2nc(NC(=O)c3ccc(OC(F)F)cn3)cs2)CO1` (single isomer, unassigned) [Example 15], inhibition was half-maximal at 22200 nM (IC50).

Consider `NC1=N[C@]2(c3nc(NC(=O)c4ccc(OC(F)F)cn4)cs3)COC3(CC3)C[C@@H]2CS1` (single isomer, unassigned) [Example 38, N-{2-[(4a′S,8a′S)-2′-amino-4a′,5′-dihydro-4′H-spiro[cyclopropane-1,6′-pyrano[3,4-d][1,3]thiazin]-8a′(8′H)-yl]-1,3-thiazol-4-yl}-5-(difluoromethoxy)pyridine-2-carboxamide], for which the IC50 was 34500 nM.

The compound `CC1(C)C[C@H]2CSC(N)=N[C@@]2(c2nc(NC(=O)C34CC(C3)C4)cs2)CO1` [Example 33, N-{2-[(4aR,8aR)-2-amino-6,6-dimethyl-4,4a,5,6-tetrahydropyrano[3,4-d][1,3]thiazin-8a(8H)-yl]-1,3-thiazol-4-yl} bicyclo[1.1.1]pentane-1-carboxamide] showed an IC50 of 734 nM.

As for `CC1(C)C[C@H]2CSC(N)=N[C@@]2(c2nc(NC(=O)C(C)(C)F)cs2)CO1` [Example 31, N-{2-[(4aR,8aR)-2-amino-6,6-dimethyl-4,4a,5,6-tetrahydropyrano[3,4-d][1,3]thiazin-8a(8H)-yl]-1,3-thiazol-4-yl}-2-fluoro-2-methylpropanamide], the IC50 came to 911 nM.

Consider `Cc1cc(OC(F)F)cnc1C(=O)Nc1csc([C@@]23COC(C)(C)C[C@@H]2CSC(N)=N3)n1` (single isomer, unassigned) [Example 25], for which 14800 nM corresponded to half-maximal inhibition (IC50).

In turn, `CC1(C)C[C@H]2CSC(N)=N[C@@]2(c2nc(NC(=O)c3cnc(OC(F)F)cn3)cs2)CO1` (single isomer, unassigned) [Example 14] yielded an IC50 of 167 nM.

Consider `CC#CCOc1cnc(C(=O)Nc2csc([C@@]34COC(C)(C)C[C@@H]3CSC(N)=N4)n2)cn1` (single isomer, unassigned) [Example 20], for which the IC50 worked out at 15500 nM.

`CC[C@@]1(C)C[C@H]2CSC(N)=N[C@@]2(c2nc(NC(=O)c3ncc(OC(F)F)cc3C)cs2)CO1` [Example 36, N-{2-[(4aR,6S,8aR)-2-amino-6-ethyl-6-methyl-4,4a,5,6-tetrahydropyrano[3,4-d][1,3]thiazin-8a(8H)-yl]-1,3-thiazol-4-yl}-5-(difluoromethoxy)-3-methylpyridine-2-carboxamide] gave an IC50 of 60 nM.

Compound `CC[C@]1(C)C[C@H]2CSC(N)=N[C@@]2(c2nc(NC(=O)c3ccc(OC(F)F)cn3)cs2)CO1` [Example 27, N-{2-[(4aR,6R,8aR)-2-amino-6-ethyl-6-methyl-4,4a,5,6-tetrahydropyrano[3,4-d][1,3]thiazin-8a(8H)-yl]-1,3-thiazol-4-yl}-5-(difluoromethoxy)pyridine-2-carboxamide] gave an IC50 of 1830 nM.

In the case of `C[C@@]1(CF)C[C@H]2CSC(N)=N[C@@]2(c2nc(NC(=O)c3ccc(OC(F)F)cn3)cs2)CO1` [Example 34, N-{2-[(4aR,6S,8aR)-2-amino-6-(fluoromethyl)-6-methyl-4,4a,5,6-tetrahydropyrano[3,4-d][1,3]thiazin-8a(8H)-yl]-1,3-thiazol-4-yl}-5-(difluoromethoxy) pyridine-2-carboxamide], the IC50 worked out at 194 nM.

As to `COC[C@@]1(C)C[C@H]2CSC(N)=N[C@@]2(c2nc(NC(=O)c3ccc(OC(F)F)cn3)cs2)CO1` [Example 9, N-{2-[(4aR,6R,8aR)-2-amino-6-(methoxymethyl)-6-methyl-4,4a,5,6-tetrahydropyrano[3,4-d][1,3]thiazin-8a(8H)-yl]-1,3-thiazol-4-yl}-5-(difluoromethoxy) pyridine-2-carboxamide], the IC50 amounted to 105 nM.
